In test [1] the test system is Staphylococcus aureus. The test can be described thus: Antibacterial activity against Staphylococcus aureus ATCC 6538 by rotary shaker method. It counts as functional.
Test [2] concerns Candida albicans. The experiment in a line: Antifungal activity against Candida albicans UBC1. It counts as functional, organism-based.
In test [3] the test system is Pseudomonas aeruginosa. The test can be described thus: Antibacterial activity against Pseudomonas aeruginosa AK 958. It counts as functional, organism-based.
Test [4] has as its system Escherichia coli. The experiment in a line: Antibacterial activity against Escherichia coli CECT 99. It counts as functional, organism-based.
Test [5] concerns Salmonella. The test can be described thus: Antibacterial activity against Salmonella sp. CECT 456. It counts as functional, organism-based.
In test [6] the test system is Bacillus subtilis. The experiment in a line: Antibacterial activity against Bacillus subtilis CECT 39 by rotary shaker method. It counts as functional.

≈ marks a conversion by molar mass, not a printed value. Calls of active or inactive are those of the source. The rule behind the calls is not given here.

As to `CCCCCCC/C=C\[C@H](O)C#CC#C/C=C\CO`, the minimum inhibitory concentration (MIC) amounted to 10 µg/mL (≈ 38.4 µM) in test [1] and 10.5 µg/mL (≈ 40.3 µM) in test [6]. The result in test [2], in test [3], in test [4] and in test [5] was inactive.
